Legend:
Format in all cases: in vivo
[1] = test system: Agrotis ypsilon (Greasy cutworm); test: Protection of corn seedlings from Agrotis ypsilon larvae in field arenas (bait, foliar spray, seed treatment)
[2] = test system: Reticulitermes santonensis; test: Termite worker knockdown and mortality after exposure to filter paper bait
Method: (§1) Bait preparation. isocyloseram was applied dissolved in acetone to the appropriate insect diet such that the desired a.i. loading was delivered in the diet after the acetone had evaporated. • House fly—granulated sugar • Termites—filter paper • Darkling beetle—oat flakes
(§2) In a suitable arena, 10 insects of each species were exposed to 1 g of the solid baits. Baits were presented in such a way as to minimise the contact exposure. Three replicates of each treatment and species were conducted.
(§3) Insect knockdown was assessed one and three hours after exposure, and mortality after 24 and 48 and 168 hours.

[3] = test system: Darkling beetle larvae; test: Darkling beetle larval knockdown and mortality after exposure to oat flake bait
Method: as §1, §2, §3

[4] = test system: Darkling beetle adults; test: Darkling beetle adult knockdown and mortality after exposure to oat flake bait; settings: for Mean % knockdown or mortality: adults
Method: as §1, §2, §3

[5] = test system: Musca domestica; test: Adult house fly knockdown and mortality after exposure to a sugar bait
Method: as §1, §2, §3

[6] = test system: Atta bisphaerica (leaf cutter ant); test: Field test for control of leaf cutter ant with pelleted citrus pulp bait; settings: for control efficiency after opening the nests in the excavation of the anthills: excavation at 155 DAA, modified Abbott formula; for ceased activity in leaf cutting by ants: ninety days after application
Method: Bait preparation. Blends of citrus pulp and refined soybean oil (95/5 w/w %) were sprayed with an aqueous isocycloseram suspension concentrate (SC) such as […]™ (Syngenta Agro S.A.), further blended and pelletized. Bait pellets or granules having an isocycloseram a.i. loading of 0.05, 0.1, 0.2 and 0.3%, respectively, were prepared.
The field test for the control of Atta bisphaerica (leaf cutter ant) was conducted with the pelleted isocycloseram citrus pulp bait. The experimental design was completely randomized, with fourteen treatments and 10 replications, following the norms, considering an anthill as repetition. The treatments used were: isocyloseram −0.05% at doses of 6, 10 and 12 g/m^2, isocyloseram […] 0.1% at doses of 6, 10 and 12 g/m^2, isocyloseram −0.2% at doses of 6, 10 and 12 g/m^2, isocyloseram −0.3% at doses of 6, 10 and 12 g/m^2, A commercial standard Mirex-S (sulfluramid) at a dose of 10 g/m^2 and a control (Placebo); commercial product dosages per m^2 of loose earth. The evaluations with 1, 2, 3 and 7 DAA (days after application) included the loading rate parameters (%) (i.e. the % bait applied that is carried into the ant nest), return rate (%) (i.e. the % bait rejected by the colony) and intoxicated ants. As 1, 2, 3, 7, 15, 28, 60, 90, 118 and 155 DAA, the ground removal parameters (%) and leaf cutting and anthill excavation at 155 DAA.
The application of the products was carried out manually, with the aid of a dosing cup, near the scouts and trails of the anthills. The results obtained were submitted to variance analysis, compared by the Scott-Knott test (p≤0.05) and corrected by the modified Abbott formula for control calculation.

[7] = test system: German cockroaches, Blattella germanica; test: Cockroach peanut butter bait: donor mortality and secondary kill of recipients; settings: for Recipient % mortality: recipients exposed to donors of 1% bait, not to the bait
Method: Isocycloseram was incorporated into the peanut-butter base by mixing 0.5 ml of a 10000 ppm (1%) solution of the compound in acetone into 0.5 g of peanut butter. The mixture was left in a fume cupboard for 24 hours to allow the acetone to evaporate, leaving […] of compound in 0.5 g of peanut butter, equivalent to 10000 ppm.
Five adult male and five non-gravid adult female German cockroaches, Blattella germanica, were marked with a dot of white paint, to identify them, and placed into a plastic arena approximately 20 cm in diameter. Also placed in each arena was a simple harbourage constructed from concertinaed card and a water source. After the cockroaches had acclimatised for 24 hours a 15 ml glass vial containing 0.5 g of the treated peanut butter bait was added.
After 48 hours the glass vial containing the bait was removed, and an assessment of the cockroach mortality was made. Five adult male and five non-gravid adult female German cockroaches, Blattella germanica, were added to the arena, leaving any dead or alive cockroaches with the white paint mark in the arena.
Mortality of both the marked and unmarked cockroaches was made after 24 and 96 hours.

[8] = test system: Agrotis ypsilon (Greasy cutworm); test: Protection of corn seedlings from Agrotis ypsilon larvae in field arenas (bait, foliar spray, seed treatment); remark: listed apart in the source
Method: Trial layout: Arenas of 4 square metres were created in a field with 20 cm high plastic walls to prevent escape of larvae and influx of predators but left to the open air. 3 replicates per trearment were set up. Corn (variety Hightech 2031, conventional non-Bt) was planted at the rate of 30 seeds per arena.
Application method 1: For seed treatment, the seeds were treated with aqueous 40% isocycloseram formulation, such as […]™ (Syngenta Agro S.A.), one day before planting using a standard seed treatment water slurry volume of 50 ml/kg of seed. Four rates of isocycloseram seed treatment were tested 0.3, 0.6, 1.3 and 2.5 mg/seed.
Application method 2: For bait application, dried cobs of maize corn were ground after removal of the seeds to form a coarse granular “corn grit” bait carrier. The corn grit was spread out on a plastic sheet and sprayed with a 40% SC aqueous formulation of isocycloseram mixed with water at the rates of 15, 30 and 60 grams of isocycloseram per 70 kg of corn grit. The baits were then mixed homogeneously and spread by hand in the evening at a rate of 70 kg/ha (7 gr./sqm, or 28 gr./plot) evenly over the soil surface. This was done 4 days after planting, just before emergence of the corn to attract and kill the cutworms at night.
Application method 3: For foliar sprays, a standard hand-held spray-boom with flat-fan nozzles at 600 I/ha was used. The spray was made 1 day after release of the Greasy cutworm larvae at the 2 leaf stage (BBCH 12) of the corn. Three rates were used 30, 60 and 90 grams isocyclseram per hectare
Two check lots were included—both untreated, one with infestation and one without infestation.
Artificial infestation: Laboratory-reared Agrotis ypsilon (Greasy cutworm) larvae at the L5 stage were released into the arenas at a rate of 30 larvae per arena (1 larva per plant) in the morning. This infestation was made Infest 30 L5 larvae into each arena in the morning (1 larva per plant) approx 3 days after seeding just as corn is germinating. Make the application 8-24 hours later.
Assessment: The number of damaged plants per plot was measured at 21 days after the last application (the foliar spray).

[9] = test system: Darkling beetle larvae; test: Darkling beetle larval knockdown and mortality after exposure to oat flake bait; settings: larval stage, 100 ppm, after seven days
[10] = 0.1% in oat flake bait, 3 hours
[11] = 0.1% in oat flake bait, 24 hours
[12] = 0.1% in oat flake bait, 48 hours
[13] = 0.1% in oat flake bait, 168 hours
[14] = 1% in oat flake bait, 168 hours

In the case of `CC1(C)[C@H](C(=O)O[C@H](C#N)c2cccc(Oc3ccccc3)c2)[C@@H]1/C=C(\Cl)C(F)(F)F` [lambdacyhalothrin, Lambdacyhalothrin], the “% reduction of corn damage 22 d after infestation” value (from here on “% reduction of corn damage 22 d”) ([1]; Foliar spray 22.4 gai/ha) was 81%.
`CCN1OCC(NC(=O)c2ccc(C3=NOC(c4cc(Cl)c(F)c(Cl)c4)(C(F)(F)F)C3)cc2C)C1=O` (centres unmarked) [isocyloseram, Isocycloseram] was tested, and the “Mean % knockdown or mortality” value ([2]; 0.10% in filter paper bait, 1 hour) was 0%, the “Mean % knockdown or mortality” value ([2]; 0.10% in filter paper bait, 3 hours) was 0% and the “Mean % knockdown or mortality” value ([2]; 0.10% in filter paper bait, 24 hours) was 100%. For the same compound, the “Mean % knockdown or mortality” value ([2]; 0.10% in filter paper bait, 48 hours) was 100%, the “Mean % knockdown or mortality” value ([2]; 1% in filter paper bait, 1 hour) was 0% and the “Mean % knockdown or mortality” value ([2]; 1% in filter paper bait, 3 hours) was 7%. For the same compound, the “Mean % knockdown or mortality” value ([2]; 1% in filter paper bait, 24 hours) was 100%, the “Mean % knockdown or mortality” value ([2]; 1% in filter paper bait, 48 hours) was 100% and the “Mean % knockdown or mortality” value ([3]; 0.1% in oat flake bait, 1 hour) was 0%. For the same compound, the “Mean % knockdown or mortality” value [3, 10] was 0%, the “Mean % knockdown or mortality” value [3, 11] was 0% and the “Mean % knockdown or mortality” value [3, 12] was 3%. For the same compound, the “Mean % knockdown or mortality” value [3, 13] was 23%, the “Mean % knockdown or mortality” value ([3]; 1% in oat flake bait, 1 hour) was 0% and the “Mean % knockdown or mortality” value ([3]; 1% in oat flake bait, 3 hours) was 23%. The “Mean % knockdown or mortality” value ([3]; 1% in oat flake bait, 24 hours) was 80%, the “Mean % knockdown or mortality” value ([3]; 1% in oat flake bait, 48 hours) was 83% and the “Mean % knockdown or mortality” value [3, 14] was 100%. The mortality ([4]; adult stage, 100 ppm, after seven days) was 100%, the “Mean % knockdown or mortality” value ([4]; 0.1% in oat flake bait, 1 hour) was 0% and the “Mean % knockdown or mortality” value [4, 10] was 0%. For the same compound, the “Mean % knockdown or mortality” value [4, 11] was 0%, the “Mean % knockdown or mortality” value [4, 12] was 3% and the “Mean % knockdown or mortality” value [4, 13] was 7%. The “Mean % knockdown or mortality” value ([4]; 1% in oat flake bait, 1 hour) was 0%, the “Mean % knockdown or mortality” value ([4]; 1% in oat flake bait, 3 hours) was 0% and the “Mean % knockdown or mortality” value ([4]; 1% in oat flake bait, 24 hours) was 93%. For the same compound, the “Mean % knockdown or mortality” value ([4]; 1% in oat flake bait, 48 hours) was 97%, the “Mean % knockdown or mortality” value [4, 14] was 100% and the “Mean % knockdown or mortality” value ([5]; 0.10% in sugar bait, 1 hour) was 0%. The “Mean % knockdown or mortality” value ([5]; 0.10% in sugar bait, 3 hours) was 57%, the “Mean % knockdown or mortality” value ([5]; 0.10% in sugar bait, 24 hours) was 100% and the “Mean % knockdown or mortality” value ([5]; 1% in sugar bait, 1 hour) was 0%. For the same compound, the “Mean % knockdown or mortality” value ([5]; 1% in sugar bait, 3 hours) was 97%, the “Mean % knockdown or mortality” value ([5]; 1% in sugar bait, 24 hours) was 100% and the “control efficiency after opening the nests in the excavation of the anthills” value ([6]; 0.2% bait (10 and 12 g)) was “higher than 84%”. For the same compound, the “control efficiency after opening the nests in the excavation of the anthills” value ([6]; 0.3% bait (6, 10 and 12 g)) was “higher than 84%”, the “response rate as a function of the time of intoxication” value ([6]; first three days after application of bait) was 87.5% and the “ceased activity in leaf cutting by ants” value ([6]; 0.1% bait (12 g)) was 100%. For the same compound, the “ceased activity in leaf cutting by ants” value ([6]; 0.2% bait (6, 10 and 12 g)) was 100%, the “ceased activity in leaf cutting by ants” value ([6]; 0.3% bait (6, 10 and 12 g)) was 100% and the “response rate as a function of the time of intoxication” value ([6]; seven days after bait application) was 100%. For the same compound, the “average (ground) removal” value ([6]; twenty-eight days after treatment) was “less than 5%”, the Donor % mortality ([7]; 1% in peanut butter bait, 48 hours) was 100% and the Recipient % mortality ([7]; 24 hours post introduction) was 97%. For the same compound, the Recipient % mortality ([7]; 96 hours post introduction) was 100%, the “% reduction of corn damage 22 d” value ([8]; Corn Grit Bait 0.42 gai/kg bait, equivalent 30 gai/ha) was 94% and the “% reduction of corn damage 22 d” value ([8]; Corn Grit Bait 0.63 gai/kg bait, equivalent 60 gai/ha) was 94%. The “% reduction of corn damage 22 d” value ([8]; Corn grit Bait 0.21 gai/kg bait, equivalent 15 gai/ha) was 87%, the “% reduction of corn damage 22 d” value ([8]; Foliar spray 30 gai/ha) was 37% and the “% reduction of corn damage 22 d” value ([8]; Foliar spray 60 gai/ha) was 46%. For the same compound, the “% reduction of corn damage 22 d” value ([8]; Foliar spray 90 gai/ha) was 74%, the “% reduction of corn damage 22 d” value ([8]; Seed treatment 0.3 mg ai/seed, equivalent 18 gai/ha) was 0% and the “% reduction of corn damage 22 d” value ([8]; Seed treatment 0.6 mg ai/seed, equivalent 36 gai/ha) was 2%. The “% reduction of corn damage 22 d” value ([8]; Seed treatment 1.3 mg ai/seed, equivalent 72 gai/ha) was 6%, the “% reduction of corn damage 22 d” value ([8]; Seed treatment 2.5 mg ai/seed, equivalent 144 gai/ha) was 13% and the mortality [9] was 100%.
With Spinetoram the “% reduction of corn damage 22 d” value ([1]; Foliar spray 18 gai/ha) was 28%.
